According to ChEMBL document CHEMBL6134849, “A Water-Soluble Aggregation-Induced Emission Photosensitizer with Intrinsic Antibacterial Activity as an Antiplanktonic and Antibiofilm Therapeutic Agent” (J Med Chem, 2025):
Active and inactive are the calls of the source. The rule behind the calls is not given here.

How the values were obtained:
[1] = test system: Staphylococcus aureus; experiment: Downregulation of engB expression level in Staphylococcus aureus at 6.25 uM incubated for 1 hr in absence of light irradiation; assay type: functional
[2] = test system: Cell membrane; experiment: Induction of cell membrane damage in Staphylococcus aureus assessed as RNA leakage at 10 uM preincubated with compound for 20 mins followed by 600 nm light irradiation for 45 min by absorption based plate reader analysis; assay type: subcellular; details: time 65.0 min
[3] = Cytotoxicity against human HFF-1 cells assessed as cell viability at 40 uM in presence of 600 nm light irradiation for 45 mins by MTT assay relative to control; assay type: toxicity, cell-based; details: read-out: Activity
[4] = test system: Staphylococcus aureus; experiment: Antibacterial activity against Staphylococcus aureus at 6.25 uM measured within 2 hrs in absence of light irradiation by time-kill kinetics assay relative to control; assay type: functional
[5] = test system: Staphylococcus aureus; experiment: Downregulation of sepF expression level in Staphylococcus aureus at 6.25 uM incubated for 1 hr in absence of light irradiation; assay type: functional
[6] = test system: Staphylococcus aureus; experiment: Downregulation of murC expression level in Staphylococcus aureus at 6.25 uM incubated for 1 hr in absence of light irradiation; assay type: functional
[7] = test system: Cell membrane; experiment: Induction of cell membrane damage in Pseudomonas aeruginosa assessed as protein leakage at 10 uM preincubated with compound for 20 mins followed by 600 nm light irradiation for 45 min by absorption based plate reader analysis; assay type: subcellular; details: time 65.0 min
[8] = test system: Staphylococcus aureus; experiment: Downregulation of gltX expression level in Staphylococcus aureus at 6.25 uM incubated for 1 hr in absence of light irradiation; assay type: functional
[9] = test system: Staphylococcus aureus; experiment: (§1) In vivo antibacterial activity against methicillin-resistant Staphylococcus aureus ATCC 43300 infected in female BALB/c mouse skin wound infection model assessed as reduction in inflammatory cell infiltration in wound at 90 uM pre-infected with bacteria for 24 hrs followed by topical compound addition for 10 mins in presence of 600 nm 60 mW/cm2 light irradiation for 15 mins and measured on day 6 by Masson trichrome staining based analysis; assay type: functional, organism-based; details: time 6.0 day
[10] = test system: Staphylococcus aureus; experiment: Downregulation of ileS expression level in Staphylococcus aureus at 6.25 uM incubated for 1 hr in absence of light irradiation; assay type: functional
[11] = test system: Staphylococcus aureus; experiment: Downregulation of serS expression level in Staphylococcus aureus at 6.25 uM incubated for 1 hr in absence of light irradiation; assay type: functional
[12] = test system: Staphylococcus aureus; experiment: Downregulation of valS expression level in Staphylococcus aureus at 6.25 uM incubated for 1 hr in absence of light irradiation; assay type: functional
[13] = test system: Cell membrane; experiment: Induction of cell membrane damage in Pseudomonas aeruginosa assessed as bacterial cell shrinkage at 10 uM preincubated with compound for 20 mins followed by 600 nm light irradiation for 45 min by SEM analysis; assay type: subcellular; details: time 65.0 min
[14] = test system: Cell membrane; experiment: Induction of cell membrane damage in Staphylococcus aureus assessed as protein leakage at 10 uM preincubated with compound for 20 mins followed by 600 nm light irradiation for 45 min by absorption based plate reader analysis; assay type: subcellular; details: time 65.0 min
[15] = test system: Staphylococcus aureus; experiment: Downregulation of ftsZ expression level in Staphylococcus aureus at 6.25 uM incubated for 1 hr in absence of light irradiation; assay type: functional
[16] = test system: Staphylococcus aureus; experiment: Downregulation of murB expression level in Staphylococcus aureus at 6.25 uM incubated for 1 hr in absence of light irradiation; assay type: functional
[17] = test system: Cell membrane; experiment: Induction of cell membrane damage in Pseudomonas aeruginosa assessed as bacterial cell collapse at 10 uM preincubated with compound for 20 mins followed by 600 nm light irradiation for 45 min by SEM analysis; assay type: subcellular; details: time 65.0 min
[18] = test system: Staphylococcus aureus; experiment: Downregulation of hlgC protein expression in Staphylococcus aureus under light irradiation; assay type: functional
[19] = test system: Staphylococcus aureus; experiment: Downregulation of tyrS expression level in Staphylococcus aureus at 6.25 uM incubated for 1 hr in absence of light irradiation; assay type: functional
[20] = test system: Staphylococcus aureus; experiment: Antibiofilm activity against Staphylococcus aureus assessed as mature biofilm eradication incubated for 24 hrs under dark condition in absence of light irradiation by crystal violet staining based analysis; assay type: functional, organism-based
[21] = test system: Staphylococcus aureus; experiment: Downregulation of femB expression level in Staphylococcus aureus at 6.25 uM incubated for 1 hr in absence of light irradiation; assay type: functional
[22] = test system: Cell membrane; experiment: Induction of cell membrane damage in Staphylococcus aureus assessed as DNA leakage at 10 uM preincubated with compound for 20 mins followed by 600 nm light irradiation for 45 min by absorption based plate reader analysis; assay type: subcellular; details: time 65.0 min
[23] = test system: Staphylococcus aureus; experiment: Downregulation of murG expression level in Staphylococcus aureus at 6.25 uM incubated for 1 hr in absence of light irradiation; assay type: functional
[24] = test system: Pseudomonas aeruginosa; experiment: In vivo antibacterial activity against […] Pseudomonas aeruginosa ATCC 27853 infected in female BALB/c mouse skin wound infection model assessed as reduction in wound area at 90 uM pre-infected with bacteria for 24 hrs followed by topical compound addition for 10 mins in presence of 600 nm 60 mW/cm2 light irradiation for 15 mins and measured on day 4; assay type: functional, organism-based; details: time 4.0 day
[25] = test system: Staphylococcus aureus; experiment: Antibiofilm activity against Staphylococcus aureus assessed as bacterial eradication by measuring green fluorescence signal at 10 uM incubated for 1 hrs in presence of light irradiation by calcein-AM fluorescence dye based analysis; assay type: functional, organism-based
[26] = test system: Cell membrane; experiment: Induction of cell membrane damage in Pseudomonas aeruginosa assessed as DNA leakage at 10 uM preincubated with compound for 20 mins followed by 600 nm light irradiation for 45 min by absorption based plate reader analysis; assay type: subcellular; details: time 65.0 min
[27] = test system: Staphylococcus aureus; experiment: Downregulation of spoVG expression level in Staphylococcus aureus at 6.25 uM incubated for 1 hr in absence of light irradiation; assay type: functional
[28] = test system: Pseudomonas aeruginosa; experiment: Antibiofilm activity against Pseudomonas aeruginosa assessed as bacterial eradication by measuring green fluorescence signal at 10 uM incubated for 1 hrs in presence of light irradiation by calcein-AM fluorescence dye based analysis; assay type: functional, organism-based
[29] = test system: Pseudomonas aeruginosa; experiment: Selective drug uptake in Pseudomonas aeruginosa co-cultured with human HFF-1 cells by measuring fluorescence signal at 10 uM incubated for 20 mins; assay type: ADME, organism-based; details: hff-1, 20 min
[30] = test system: Staphylococcus aureus; experiment: Downregulation of hlgB protein expression in Staphylococcus aureus under light irradiation; assay type: functional
[31] = test system: Staphylococcus aureus; experiment: Downregulation of glmM expression level in Staphylococcus aureus at 6.25 uM incubated for 1 hr in absence of light irradiation; assay type: functional
[32] = test system: Staphylococcus aureus; experiment: as §1, with “collagen deposition” for “reduction in inflammatory cell infiltration”, “H and E” for “Masson trichrome”; assay type: functional, organism-based; details: time 6.0 day
[33] = Induction of […] ROS generation in PBS assessed as increase in hydroxyl radical by measuring increase in HPF fluorescence intensity at 10 uM irradiated with 660 nm 60 mW/cm2 light for 15 mins by HPF probe based plate reader analysis; assay type: functional
[34] = test system: Staphylococcus aureus; experiment: Downregulation of murI expression level in Staphylococcus aureus at 6.25 uM incubated for 1 hr in absence of light irradiation; assay type: functional
[35] = test system: Staphylococcus aureus; experiment: Downregulation of asnS expression level in Staphylococcus aureus at 6.25 uM incubated for 1 hr in absence of light irradiation; assay type: functional

Q: With C#CCC[n+]1c(/C=C/c2ccc(-c3ccc(N(c4ccc(OCCC[N+](C)(C)C)cc4)c4ccc(OCCC[N+](C)(C)C)cc4)cc3)s2)sc2ccccc21.[Br-].[Br-].[Br-] as the compound, how does the Activity [1] read?
A: Active

Q: What about the Activity [2] of the same compound?
A: Active

Q: And the viability at 0.75 h, 40 µM [3]?
A: < 90%

Q: And the Activity [4]?
A: 100%

Q: And the Activity [5]?
A: Active

Q: And the Activity [6]?
A: Active

Q: What about the Activity [7] of the same compound?
A: Active

Q: And the Activity [8]?
A: Active

Q: What about the Activity [9] of the same compound?
A: Active

Q: What about the Activity [10] of the same compound?
A: Active

Q: And the Activity [11]?
A: Active

Q: What about the Activity [12] of the same compound?
A: Active

Q: And the Activity [13]?
A: Active

Q: And the Activity [14]?
A: Active

Q: What about the Activity [15] of the same compound?
A: Active

Q: What about the Activity [16] of the same compound?
A: Active

Q: And the Activity [17]?
A: Active

Q: What about the Activity [18] of the same compound?
A: Active

Q: And the Activity [19]?
A: Active

Q: What about the Activity [20] of the same compound?
A: Active

Q: And the Activity [21]?
A: Active

Q: And the Activity [22]?
A: Active

Q: What about the Activity [23] of the same compound?
A: Active

Q: And the Activity [24]?
A: Active

Q: What about the Activity [25] of the same compound?
A: Active

Q: And the Activity [26]?
A: Active

Q: And the Activity [27]?
A: Active

Q: And the Activity [28]?
A: Active

Q: And the Drug uptake [29]?
A: Active

Q: And the Activity [30]?
A: Active

Q: And the Activity [31]?
A: Active

Q: What about the Activity [32] of the same compound?
A: Active

Q: What about the Activity [33] of the same compound?
A: Active

Q: What about the Activity [34] of the same compound?
A: Active

Q: And the Activity [35]?
A: Active
